Measured values published in patent US6979676B2 (priority 2002, dated 2005).
Where two headings read alike, the source gives them in different places.

Experiments:
[1] = Degradation rate of Formula I in various pH conditions (T90 at 80° C.); format: physicochemical
[2] = Stability of Formula I in various PG/buffer solutions (HPLC purity, initial point vs 80° C./8 days); format: physicochemical; details: initial point and 80° C./8 days
[3] = Solubility of Formula I in various vehicles; format: physicochemical; details: thermodynamic from solid, room temperature after 1 day
[4] = Stability of Formula I in PG/water or PG/buffers (HPLC purity, initial point vs 80° C./4 days); format: physicochemical; details: 5 mg/mL, initial point and 80° C./4 days
[5] = 50% PG/75 mM citrate buffer (pH = 4)

In the case of `O=C1c2c(c3c4ccc(O)cc4n(C4OC(CO)C(O)C(O)C4O)c3c3[nH]c4cc(O)ccc4c23)C(=O)N1NC(CO)CO` [Formula I, 12,13-dihydro-2,10-dihydroxy-6-N-(1-hydroxymethyl-2-hydroxyethylamino)-13-(β-D-glucopyranosyl)-5H-indolo[2,3-α]pyrrolo[3,4-c]carbazole-5,7(6H)-dione], the “T90 (time required to degrade Formula I to 90% of the initial concentration)” value ([1]; pH 2) is reported as 0.9 days, the “T90 (time required to degrade Formula I to 90% of the initial concentration)” value ([1]; pH 3, extrapolated data) is reported as 19 days and the “T90 (time required to degrade Formula I to 90% of the initial concentration)” value ([1]; pH 4, extrapolated data) is reported as 89 days. The “T90 (time required to degrade Formula I to 90% of the initial concentration)” value ([1]; pH 5, extrapolated data) was 7.8 days, the “T90 (time required to degrade Formula I to 90% of the initial concentration)” value ([1]; pH 6) was 2.3 days and the “T90 (time required to degrade Formula I to 90% of the initial concentration)” value ([1]; pH 7) was 0.233 days. The “T90 (time required to degrade Formula I to 90% of the initial concentration)” value ([1]; pH 8) was 0.0194 days, the “T90 (time required to degrade Formula I to 90% of the initial concentration)” value ([1]; pH 9) was 0.00486 days and the “T90 (time required to degrade Formula I to 90% of the initial concentration)” value ([1]; pH 10) was 0.000833 days. For the same molecule, the “Stability of Formula I (purity by HPLC)” value ([2]; 50% PG/50 mM citrate buffer (pH = 4)) was −5.50%, the “Stability of Formula I (purity by HPLC)” value ([2]; 50% PG/50 mM tartrate buffer (pH = 4)) was −6.12% and the “Stability of Formula I (purity by HPLC)” value [2, 5] was −6.49%. For the same molecule, the “Stability of Formula I (purity by HPLC)” value ([2]; 50% PG/water) was −30.68%, the solubility (physchem; aqueous with cosolvent or surfactant or cyclodextrin) was 10000 µg/mL and the solubility (physchem; saline or isotonic) was 150 µg/mL. For the same molecule, the solubility at 1 day ([3]; aqueous buffer, 50 mM citrate buffer (pH = 3)) was 920 µg/mL, the solubility at 1 day ([3]; aqueous buffer, 50 mM citrate buffer (pH = 4)) was 810 µg/mL and the solubility at 1 day ([3]; aqueous buffer, 50 mM citrate buffer (pH = 5)) was 720 µg/mL. The solubility at 1 day ([3]; aqueous buffer, 50 mM citrate buffer (pH = 6)) was 720 µg/mL, the solubility at 1 day ([3]; aqueous buffer, 50 mM citrate buffer (pH = 7)) was 670 µg/mL and the solubility at 1 day ([3]; aqueous with cosolvent or surfactant or cyclodextrin, 25% PEG 400/water (w/v)) was 16000 µg/mL. The solubility at 1 day ([3]; aqueous with cosolvent or surfactant or cyclodextrin, 25% PG/water (w/v)) was 4000 µg/mL, the solubility at 1 day ([3]; aqueous with cosolvent or surfactant or cyclodextrin, 40% PG/water (w/v)) was 12000 µg/mL and the solubility at 1 day ([3]; aqueous with cosolvent or surfactant or cyclodextrin, 50% PEG 400/water (w/v)) was 25000 µg/mL. For the same molecule, the solubility at 1 day ([3]; aqueous with cosolvent or surfactant or cyclodextrin, 50% PG/50 mM citrate buffer (pH = 3)) was 24000 µg/mL, the solubility at 1 day ([3]; aqueous with cosolvent or surfactant or cyclodextrin, 50% PG/50 mM citrate buffer (pH = 4)) was 25000 µg/mL and the solubility at 1 day ([3]; aqueous with cosolvent or surfactant or cyclodextrin, 50% PG/50 mM citrate buffer (pH = 5)) was 26000 µg/mL. It also gave a solubility at 1 day ([3]; aqueous with cosolvent or surfactant or cyclodextrin, 50% PG/50 mM citrate buffer (pH = 6)) of 27000 µg/mL, a solubility at 1 day ([3]; aqueous with cosolvent or surfactant or cyclodextrin, 50% PG/50 mM citrate buffer (pH = 7)) of 27000 µg/mL and a solubility at 1 day ([3]; aqueous with cosolvent or surfactant or cyclodextrin, 50% PG/water (w/v)) of 24000 µg/mL. For the same molecule, the solubility at 1 day ([3]; aqueous with cosolvent or surfactant or cyclodextrin, 75% PEG 400/water (w/v)) was 24000 µg/mL, the solubility at 1 day ([3]; aqueous with cosolvent or surfactant or cyclodextrin, 75% PG/water (w/v)) was 45000 µg/mL and the solubility at 1 day ([3]; organic solvent or mixture, 100% PEG 400) was < 670 µg/mL. For the same molecule, the solubility at 1 day ([3]; organic solvent or mixture, 100% PG) was 1200 µg/mL, the solubility at 1 day ([3]; saline or isotonic, 5% glucose/water) was 600 µg/mL and the solubility at 1 day ([3]; water) was 620 µg/mL. For the same molecule, the “Stability of Formula I (purity by HPLC)” value (1 month, 0.15 mg/mL) was −0.68%, the “Stability of Formula I (purity by HPLC)” value (50% PEG 400/water, 10 mg/mL, initial point and 40° C./1 month) was −2.9% and the “Stability of Formula I (purity by HPLC)” value (50% PG/water, 10 mg/mL, initial point and 40° C./1 month) was −0.03%. For the same molecule, the “Stability of Formula I (purity by HPLC)” value ([4]; 50% PG/75 mM citrate buffer (pH = 3)) was −2.4%, the “Stability of Formula I (purity by HPLC)” value [4, 5] was −2.2% and the “Stability of Formula I (purity by HPLC)” value ([4]; 50% PG/75 mM citrate buffer (pH = 5)) was −2.9%. The “Stability of Formula I (purity by HPLC)” value ([4]; 50% PG/water) was −9.3%.
